# From ChEMBL document CHEMBL1201861, “Genomics of Drug Sensitity in Cancer screening data, Wellcome Trust Sanger Institute”
# What was measured:
# Experiment in all cases: cells
# [1] = tested on: SF-539; format: functional, cell-based, Homo sapiens; conditions: Homo sapiens, SF-539;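 also: Read-out is a cell viability assay, with IC50 reflecting inhibition of cell growth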
# Description: SANGER: Inhibition of human SF539 cell growth in a cell viability assay.
# [2] = tested on: UACC-257; format: functional, cell-based, Homo sapiens; conditions: Homo sapiens, UACC-257
# Description: SANGER: Inhibition of human UACC-257 cell growth in a cell viability assay.
# [3] = tested on: KNS-81-FD; format: functional, cell-based, Homo sapiens; conditions: Homo sapiens, KNS-81-FD;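 also: growth inhibition of KNS-81-FD cells, read out with a cell viability assay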
# Description: SANGER: Inhibition of human KNS-81-FD cell growth in a cell viability assay.
# [4] = tested on: SK-N-DZ; format: functional, cell-based, Homo sapiens; conditions: Homo sapiens, SK-N-DZ; read-out: IC50;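 also: growth inhibition of the cancer cell line, read out through a viability assay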
# Description: SANGER: Inhibition of human SK-N-DZ cell growth in a cell viability assay.
# [5] = tested on: KARPAS-45; format: functional, cell-based, Homo sapiens; conditions: Homo sapiens, KARPAS-45;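 also: inhibition of cell line growth, read out through a viability assay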
# Description: SANGER: Inhibition of human KARPAS-45 cell growth in a cell viability assay.
# [6] = tested on: EM-2; format: functional, cell-based, Homo sapiens; conditions: Homo sapiens, EM-2;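 also: growth inhibition of EM-2 cells, read out with a cell viability assay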
# Description: SANGER: Inhibition of human EM-2 cell growth in a cell viability assay.
# [7] = tested on: RPMI-8866; format: functional, cell-based, Homo sapiens; conditions: Homo sapiens, RPMI-8866
# [8] = tested on: ES6; format: functional, cell-based; conditions: Homo sapiens;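 also: growth inhibition of human ES6 cells, read out with a cell viability assay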
# Description: SANGER: Inhibition of human ES6 cell growth in a cell viability assay.
# [9] = tested on: MFM-223; format: functional, cell-based, Homo sapiens; conditions: Homo sapiens, MFM-223
# Description: SANGER: Inhibition of human MFM-223 cell growth in a cell viability assay.
# [10] = tested on: COLO-668; format: functional, cell-based, Homo sapiens; conditions: Homo sapiens, COLO-668
# Description: SANGER: Inhibition of human COLO-668 cell growth in a cell viability assay.
# [11] = tested on: NCI-H23; format: functional, cell-based, Homo sapiens; conditions: Homo sapiens, NCI-H23;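 also: cell viability assay measuring growth inhibition of NCI-H23 cells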
# Description: SANGER: Inhibition of human NCI-H23 cell growth in a cell viability assay.
# [12] = tested on: SW872; format: functional, cell-based, Homo sapiens; conditions: Homo sapiens, SW872;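 also: growth inhibition of SW872 cells, read out by a viability assay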
# Description: SANGER: Inhibition of human SW872 cell growth in a cell viability assay.
# [13] = tested on: ONS-76; format: functional, cell-based, Homo sapiens; conditions: Homo sapiens, ONS-76;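 also: growth inhibition of human ONS-76 cells, read out with a cell viability assay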
# Description: SANGER: Inhibition of human ONS-76 cell growth in a cell viability assay.
# [14] = tested on: SNU-5; format: functional, cell-based, Homo sapiens; conditions: Homo sapiens, SNU-5;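 also: cell viability readout used to measure growth inhibition in human NCI-SNU-5 cells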
# Description: SANGER: Inhibition of human NCI-SNU-5 cell growth in a cell viability assay.
# [15] = tested on: no-11; format: functional, cell-based, Homo sapiens; conditions: Homo sapiens;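 also: growth inhibition of human NO-11 cells, read out with a cell viability assay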
# Description: SANGER: Inhibition of human no-11 cell growth in a cell viability assay.
# [16] = tested on: BT-474; format: functional, cell-based, Homo sapiens; conditions: Homo sapiens, BT-474
# Description: SANGER: Inhibition of human BT-474 cell growth in a cell viability assay.
# [17] = tested on: D-263MG; format: functional, cell-based, Homo sapiens; conditions: Homo sapiens, D-263MG
# Description: SANGER: Inhibition of human D-263MG cell growth in a cell viability assay.
# [18] = tested on: NH-12; format: functional, cell-based, Homo sapiens; conditions: Homo sapiens, NH-12;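 also: growth inhibition of NH-12 cells, read out with a cell viability assay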
# Description: SANGER: Inhibition of human NH-12 cell growth in a cell viability assay.
# [19] = tested on: KLE; format: functional, cell-based; conditions: Homo sapiens;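 also: growth inhibition of human KLE cells, read out with a cell viability assay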
# Description: SANGER: Inhibition of human KLE cell growth in a cell viability assay.
# [20] = tested on: CTB-1; format: functional, cell-based, Homo sapiens; conditions: Homo sapiens, CTB-1
# Description: SANGER: Inhibition of human CTB-1 cell growth in a cell viability assay.
# [21] = tested on: IA-LM; format: functional, cell-based; conditions: Homo sapiens;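 also: cell viability assay measuring growth inhibition of human IA-LM cells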
# Description: SANGER: Inhibition of human IA-LM cell growth in a cell viability assay.
# [22] = tested on: KNS-42; format: functional, cell-based; conditions: Homo sapiens;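 also: growth inhibition of KNS-42 cells, read out with a cell viability assay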
# Description: SANGER: Inhibition of human KNS-42 cell growth in a cell viability assay.
# [23] = tested on: MPP-89; format: functional, cell-based, Homo sapiens; conditions: Homo sapiens, MPP-89;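 also: growth inhibition of human MPP-89 cells, read out with a cell viability assay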
# Description: SANGER: Inhibition of human MPP-89 cell growth in a cell viability assay.
# [24] = tested on: JVM-2; format: functional, cell-based, Homo sapiens; conditions: Homo sapiens, JVM-2;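 also: growth inhibition of JVM-2 cells determined by a cell viability assay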
# Description: SANGER: Inhibition of human JVM-2 cell growth in a cell viability assay.
# [25] = tested on: J-RT3-T3-5; format: functional, cell-based, Homo sapiens; conditions: Homo sapiens, J-RT3-T3-5;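 also: cell viability assay measuring growth inhibition of human J-RT3-T3-5 cells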
# Description: SANGER: Inhibition of human J-RT3-T3-5 cell growth in a cell viability assay.
# [26] = tested on: NB10; format: functional, cell-based, Homo sapiens; conditions: Homo sapiens, NB10;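 also: growth inhibition of NB10 cells, read out by a cell viability assay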
# Description: SANGER: Inhibition of human NB10 cell growth in a cell viability assay.
# [27] = tested on: MS-1; format: functional, cell-based, Homo sapiens; conditions: Homo sapiens, MS-1;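 also: growth inhibition of MS-1 cells, read out by cell viability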
# Description: SANGER: Inhibition of human MS-1 cell growth in a cell viability assay.
# [28] = tested on: GI-ME-N; format: functional, cell-based, Homo sapiens; conditions: Homo sapiens, GI-ME-N;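 also: growth inhibition of human GI-ME-N cells, read out with a cell viability assay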
# Description: SANGER: Inhibition of human GI-ME-N cell growth in a cell viability assay.
# [29] = tested on: A4-Fuk; format: functional, cell-based, Homo sapiens; conditions: Homo sapiens, A4-Fuk;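 also: growth inhibition of A4-Fuk cells, read out by a cell viability assay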
# Description: SANGER: Inhibition of human A4-Fuk cell growth in a cell viability assay.
# [30] = tested on: Lu-65; format: functional, cell-based, Homo sapiens; conditions: Homo sapiens, Lu-65;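 also: growth inhibition of Lu-65 cancer cells, read out by a cell viability assay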
# Description: SANGER: Inhibition of human LU-65 cell growth in a cell viability assay.
# [31] = tested on: COR-L88; format: functional, cell-based, Homo sapiens; conditions: Homo sapiens, COR-L88;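 also: growth inhibition of COR-L88 cells, read out with a cell viability assay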
# Description: SANGER: Inhibition of human COR-L88 cell growth in a cell viability assay.
# [32] = tested on: SNU1; format: functional, cell-based, Homo sapiens; conditions: Homo sapiens, SNU1;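 also: growth inhibition of human NCI-SNU-1 cells, measured with a cell viability assay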
# Description: SANGER: Inhibition of human NCI-SNU-1 cell growth in a cell viability assay.
# [33] = tested on: NCI-H1770; format: functional, cell-based, Homo sapiens; conditions: Homo sapiens, NCI-H1770;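 also: growth inhibition of NCI-H1770 cells determined with a viability readout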
# Description: SANGER: Inhibition of human NCI-H1770 cell growth in a cell viability assay.
# [34] = tested on: U-266; format: functional, cell-based, Homo sapiens; conditions: Homo sapiens, U-266
# [35] = tested on: NCI-H209; format: functional, cell-based, Homo sapiens; conditions: Homo sapiens, NCI-H209;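 also: growth inhibition of human NCI-H209 cells, measured by a cell viability assay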
# Description: SANGER: Inhibition of human NCI-H209 cell growth in a cell viability assay.
# [36] = tested on: EW-11; format: functional, cell-based, Homo sapiens; conditions: Homo sapiens, EW-11;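 also: growth inhibition of human EW-11 cells, measured with a cell viability assay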
# Description: SANGER: Inhibition of human EW-11 cell growth in a cell viability assay.
# [37] = tested on: NCI-H69; format: functional, cell-based, Homo sapiens; conditions: Homo sapiens, NCI-H69;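 also: growth inhibition of the cell line, read out with a cell viability assay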
# Description: SANGER: Inhibition of human NCI-H69 cell growth in a cell viability assay.
# [38] = tested on: DJM-1; format: functional, cell-based, Homo sapiens; conditions: Homo sapiens, DJM-1;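 also: growth inhibition of human DJM-1 cells, read out by a cell viability assay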
# [39] = tested on: MOLT-4; format: functional, cell-based, Homo sapiens; conditions: Homo sapiens, MOLT-4;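 also: growth inhibition of MOLT-4 cells, determined with a cell viability readout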
# Description: SANGER: Inhibition of human MOLT-4 cell growth in a cell viability assay.
# [40] = tested on: 697; format: functional, cell-based, Homo sapiens; conditions: Homo sapiens
# [41] = tested on: NCI-H1650; format: functional, cell-based, Homo sapiens; conditions: Homo sapiens, NCI-H1650;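 also: growth inhibition of human NCI-H1650 cells measured by a cell viability assay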
# Description: SANGER: Inhibition of human NCI-H1650 cell growth in a cell viability assay.
# [42] = tested on: SK-N-FI; format: functional, cell-based, Homo sapiens; conditions: Homo sapiens, SK-N-FI;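 also: cell viability assay measuring growth inhibition of human SK-N-FI cells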
# Description: SANGER: Inhibition of human SK-N-FI cell growth in a cell viability assay.
# [43] = tested on: MZ7-mel; format: functional, cell-based, Homo sapiens; conditions: Homo sapiens, MZ7-mel;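 also: growth inhibition of human MZ7-mel cells, measured by a cell viability assay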
# Description: SANGER: Inhibition of human MZ7-mel cell growth in a cell viability assay.
# [44] = tested on: IST-SL1; format: functional, cell-based, Homo sapiens; conditions: Homo sapiens, IST-SL1;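 also: growth inhibition of human IST-SL1 cells, read out with a cell viability assay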
# Description: SANGER: Inhibition of human IST-SL1 cell growth in a cell viability assay.
# [45] = tested on: LS-1034; format: functional, cell-based, Homo sapiens; conditions: Homo sapiens, LS-1034
# Description: SANGER: Inhibition of human LS-1034 cell growth in a cell viability assay.
# [46] = tested on: COLO-800; format: functional, cell-based, Homo sapiens; conditions: Homo sapiens, COLO-800;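 also: growth inhibition of COLO-800 cells, read out with a cell viability assay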
# Description: SANGER: Inhibition of human COLO-800 cell growth in a cell viability assay.
# [47] = tested on: IST-MEL1; format: functional, cell-based, Homo sapiens; conditions: Homo sapiens, IST-MEL1;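 also: growth inhibition of the cell line, read out with a cell viability assay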
# [48] = tested on: LS-411N; format: functional, cell-based, Homo sapiens; conditions: Homo sapiens, LS-411N
# [49] = tested on: CTV-1; format: functional, cell-based, Homo sapiens; conditions: Homo sapiens, CTV-1;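 also: growth inhibition of the cell line, read out with a cell viability assay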
# Description: SANGER: Inhibition of human CTV-1 cell growth in a cell viability assay.
# [50] = tested on: SNU-C2B; format: functional, cell-based; conditions: Homo sapiens;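 also: cell viability readout used to measure compound-driven suppression of SNU-C2B cell proliferation, IC50 marking half-maximal growth inhibition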
# Description: SANGER: Inhibition of human SNU-C2B cell growth in a cell viability assay.
smiles,measurement,setting,value
C[C@@H](Oc1cc(-c2cnn(C3CCNCC3)c2)cnc1N)c1c(Cl)ccc(F)c1Cl [CRIZOTINIB],IC50,[1],204 nM
same,IC50,[2],> 2000 nM
same,IC50,[3],> 2000 nM
same,IC50,[4],> 2000 nM
same,IC50,[5],> 2000 nM
same,IC50,[6],601 nM
same,IC50,[7],> 2000 nM
same,IC50,[8],> 2000 nM
same,IC50,[9],> 2000 nM
same,IC50,[10],> 2000 nM
same,IC50,[11],> 2000 nM
same,IC50,[12],> 2000 nM
same,IC50,[13],> 2000 nM
same,IC50,[14],106 nM
same,IC50,[15],> 2000 nM
same,IC50,[16],> 2000 nM
same,IC50,[17],> 2000 nM
same,IC50,[18],> 2000 nM
same,IC50,[19],> 2000 nM
same,IC50,[20],> 2000 nM
same,IC50,[21],> 2000 nM
same,IC50,[22],> 2000 nM
same,IC50,[23],> 2000 nM
same,IC50,[24],> 2000 nM
same,IC50,[25],> 2000 nM
same,IC50,[26],> 2000 nM
same,IC50,[27],> 2000 nM
same,IC50,[28],> 2000 nM
same,IC50,[29],> 2000 nM
same,IC50,[30],> 2000 nM
same,IC50,[31],> 2000 nM
same,IC50,[32],> 2000 nM
same,IC50,[33],> 2000 nM
same,IC50,[34],> 2000 nM
same,IC50,[35],> 2000 nM
same,IC50,[36],> 2000 nM
same,IC50,[37],> 2000 nM
same,IC50,[38],> 2000 nM
same,IC50,[39],> 2000 nM
same,IC50,[40],> 2000 nM
same,IC50,[41],> 2000 nM
same,IC50,[42],> 2000 nM
same,IC50,[43],> 2000 nM
same,IC50,[44],> 2000 nM
same,IC50,[45],> 2000 nM
same,IC50,[46],> 2000 nM
same,IC50,[47],> 2000 nM
same,IC50,[48],> 2000 nM
same,IC50,[49],596 nM
same,IC50,[50],> 2000 nM
